Measurements taken from patent publication US12655116B2, “Substituted isophthalic acid diamides” (Bayer Aktiengesellschaft, priority 2020, dated 2026).

How the values were obtained:
ABUTH [1] = assay: Pre-emergence herbicidal action against ABUTH; format: in vivo, Abutilon theophrasti
In short: (§1)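 Seeds sown in sandy loam, soil-covered; compound sprayed on soil surface pre-emergence. Application: WP/EC, 600–800 l/ha, 0.2% wetting agent. Readout: visual % damage at 3 weeks.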

ALOMY [2] = assay: Pre-emergence herbicidal action against ALOMY; format: in vivo, Alopecurus myosuroides; settings: 80 g/ha, pre-emergence, scored visually after 3 weeks vs untreated controls (100% = plants have died, 0% = like control plants)
In short: as §1

AMARE [3] = assay: Pre-emergence herbicidal action against AMARE; format: in vivo, Amaranthus retroflexus
In short: as §1

AVEFA = assay: Pre-emergence herbicidal action against AVEFA; format: in vivo, Avena fatua; settings: 80 g/ha, pre-emergence
In short: as §1

ECHCG [4] = assay: Pre-emergence herbicidal action against ECHCG; format: in vivo, Echinochloa crus-galli; settings: 80 g/ha
In short: as §1

LOLRI = assay: Pre-emergence herbicidal action against LOLRI; format: in vivo, Lolium rigidum; settings: 80 g/ha
In short: as §1

MATIN [5] = assay: Pre-emergence herbicidal action against MATIN; format: in vivo, Matricaria inodora
In short: as §1

PHBPU [6] = assay: Pre-emergence herbicidal action against PHBPU; format: in vivo, Pharbitis purpurea; settings: dosage 80 g/ha
In short: as §1

POLCO = assay: Pre-emergence herbicidal action against POLCO; format: in vivo, Polygonum convolvulus; settings: dosage 80 g/ha
In short: as §1

SETVI [7] = assay: Pre-emergence herbicidal action against SETVI; format: in vivo, Setaria viridis
In short: as §1

VERPE [8] = assay: Pre-emergence herbicidal action against VERPE; format: in vivo, Veronica persica
In short: as §1

VIOTR = assay: Pre-emergence herbicidal action against VIOTR; format: in vivo, Viola tricolor
In short: as §1

DIGSA [9] = assay: Pre-emergence herbicidal action against DIGSA; format: in vivo, Digitaria sanguinalis
In short: as §1

ABUTH [10] = assay: Post-emergence herbicidal action against ABUTH; format: in vivo, Abutilon theophrasti; settings: visual assessment about 3 weeks after treatment vs untreated controls
In short: (§2)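 Percent herbicidal action is rated by eye about 3 weeks after treatment against untreated controls, where 100% means dead plants and 0% means like controls. Plants in sandy loam are sprayed on green parts at the one-leaf stage with aqueous WP or EC preparations at 600 to 800 l/ha plus 0.2% wetting agent.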

ALOMY [11] = assay: Post-emergence herbicidal action against ALOMY; format: in vivo, Alopecurus myosuroides; settings: dosage 20 g/ha, visual assessment about 3 weeks after treatment vs untreated controls
In short: as §2

AMARE [12] = assay: Post-emergence herbicidal action against AMARE; format: in vivo, Amaranthus retroflexus; settings: 20 g/ha, visual assessment about 3 weeks after treatment, 100% = plants have died, 0% = like control plants
In short: as §2

ECHCG [13] = assay: Post-emergence herbicidal action against ECHCG; format: in vivo, Echinochloa crus-galli
In short: as §2

MATIN [14] = assay: Post-emergence herbicidal action against MATIN; format: in vivo, Matricaria inodora; settings: dosage 20 g/ha
In short: as §2

PHBPU [15] = assay: Post-emergence herbicidal action against PHBPU; format: in vivo, Pharbitis purpurea
In short: as §2

SETVI [16] = assay: Post-emergence herbicidal action against SETVI; format: in vivo, Setaria viridis; settings: dosage 20 g/ha
In short: as §2

VERPE [17] = assay: Post-emergence herbicidal action against VERPE; format: in vivo, Veronica persica; settings: 20 g/ha
In short: as §2

DIGSA [18] = assay: Post-emergence herbicidal action against DIGSA; format: in vivo, Digitaria sanguinalis
In short: as §2

[19] = 80 g/ha, scored visually after 3 weeks vs untreated controls (100% = plants have died, 0% = like control plants)

For CCn1nnnc1NC(=O)c1ccc(C(F)F)c(C(=O)NC(C)C2CC2)c1C (centres unmarked) [Example 2-339], the “Pre-emergence action against ABUTH (herbicidal activity)” value (ABUTH [1]; [19]) was 100%, the “Pre-emergence action against ABUTH (herbicidal activity in percent)” value (ABUTH [1]; dosage 20 g/ha, scored visually after 3 weeks vs untreated controls, 100% = plants have died, 0% = like control plants) was 100% and the “Pre-emergence action against ALOMY (herbicidal activity)” value (ALOMY [2]) was 90%. The “Pre-emergence action against AMARE in %” value (AMARE [3]; 20 g/ha, scored visually after 3 weeks vs untreated controls, 100% = plants have died, 0% = like control plants) was 100%, the “Pre-emergence action against AMARE in %” value (AMARE [3]; [19]) was 100% and the “Pre-emergence action against AVEFA in %” value (AVEFA) was 80%. The “Pre-emergence action against ECHCG in %” value (ECHCG [4]) was 100%, the “Pre-emergence action against LOLRI in %” value (LOLRI) was 80% and the “Pre-emergence action against MATIN in %” value (MATIN [5]; dosage 20 g/ha) was 100%. The “Pre-emergence action against MATIN in %” value (MATIN [5]; dosage 80 g/ha) was 100%, the “Pre-emergence action against PHBPU in %” value (PHBPU [6]) was 80% and the “Pre-emergence action against POLCO in %” value (POLCO) was 80%. For the same compound, the “Pre-emergence action against SETVI in %” value (SETVI [7]; dosage 80 g/ha) was 100%, the “Pre-emergence action against VERPE in %” value (VERPE [8]; dosage 20 g/ha) was 80% and the “Pre-emergence action against VERPE in %” value (VERPE [8]; dosage 80 g/ha) was 100%. For the same compound, the “Pre-emergence action against VIOTR in %” value (VIOTR; dosage 20 g/ha) was 100%, the “Pre-emergence action against VIOTR in %” value (VIOTR; dosage 80 g/ha) was 100% and the “Pre-emergence action against DIGSA in %” value (DIGSA [9]; dosage 20 g/ha) was 100%. For the same compound, the “Pre-emergence action against DIGSA in %” value (DIGSA [9]; dosage 80 g/ha) was 100%, the “Post-emergence action against ABUTH in %” value (ABUTH [10]; dosage 5 g/ha) was 80% and the “Post-emergence action against ABUTH in %” value (ABUTH [10]; dosage 20 g/ha) was 80%. The “Post-emergence action against ALOMY in %” value (ALOMY [11]) was 80%, the “Post-emergence action at 20 g/ha against AMARE in %” value (AMARE [12]) was 90% and the “Post-emergence action against ECHCG in %” value (ECHCG [13]; dosage 20 g/ha) was 90%. For the same compound, the “Post-emergence action against MATIN in %” value (MATIN [14]) was 80%, the “Post-emergence action against PHBPU in %” value (PHBPU [15]; dosage 5 g/ha) was 90% and the “Post-emergence action against PHBPU in %” value (PHBPU [15]; dosage 20 g/ha) was 90%. For the same compound, the “Post-emergence action against SETVI in %” value (SETVI [16]) was 100%, the “Post-emergence action against VERPE in %” value (VERPE [17]) was 80% and the “Post-emergence action against DIGSA in %” value (DIGSA [18]; 5 g/ha) was 80%. For the same compound, the “Post-emergence action against DIGSA” value (DIGSA [18]; 20 g/ha) was 90%.

CC(C)NC(=O)c1c(C(F)F)ccc(C(=O)Nc2nnnn2C)c1Cl [Example 1-155] gave a pest or weed control at 80 g/ha (ABUTH [1]; Abutilon theophrasti, 504 h, 80 g/ha, scored visually after 3 weeks vs untreated controls (100% = plants have died, 0% = like control plants)) of 100%, a pest or weed control at 20 g/ha (ABUTH [1]; Abutilon theophrasti, 504 h, dosage 20 g/ha, scored visually after 3 weeks vs untreated controls, 100% = plants have died, 0% = like control plants, read-out: Pre-emergence action against ABUTH (herbicidal activity in percent)) of 100% and a pest or weed control at 80 g/ha (ALOMY [2]; Alopecurus myosuroides, 504 h) of 90%. The pest or weed control at 20 g/ha (AMARE [3]; Amaranthus retroflexus, 504 h, 20 g/ha, scored visually after 3 weeks vs untreated controls, 100% = plants have died, 0% = like control plants) was 100%, the pest or weed control at 80 g/ha (AMARE [3]; Amaranthus retroflexus, 504 h, 80 g/ha, scored visually after 3 weeks vs untreated controls, 100% = plants have died, 0% = like control plants) was 100% and the pest or weed control at 80 g/ha (AVEFA; Avena fatua, 504 h) was 90%. It also gave a pest or weed control at 80 g/ha (ECHCG [4]; Echinochloa crus-galli, 504 h) of 100%, a pest or weed control at 80 g/ha (LOLRI; Lolium rigidum, 504 h) of 90% and a pest or weed control at 20 g/ha (MATIN [5]; Tripleurospermum inodorum, 504 h, dosage 20 g/ha) of 100%. It also gave a pest or weed control at 80 g/ha (MATIN [5]; Tripleurospermum inodorum, 504 h, dosage 80 g/ha) of 100%, a pest or weed control at 80 g/ha (PHBPU [6]; Ipomoea purpurea, 504 h) of 100% and a pest or weed control at 80 g/ha (POLCO; Fallopia convolvulus, 504 h) of 90%. The pest or weed control at 20 g/ha (SETVI [7]; Setaria viridis, 504 h, dosage 20 g/ha) was 80%, the pest or weed control at 80 g/ha (SETVI [7]; Setaria viridis, 504 h, dosage 80 g/ha) was 100% and the pest or weed control at 80 g/ha (VERPE [8]; Veronica persica, 504 h, dosage 80 g/ha) was 100%. For the same compound, the pest or weed control at 80 g/ha (VIOTR; Viola tricolor, 504 h, dosage 80 g/ha) was 100%, the pest or weed control at 20 g/ha (DIGSA [9]; Digitaria sanguinalis, 504 h, dosage 20 g/ha) was 100% and the pest or weed control at 80 g/ha (DIGSA [9]; Digitaria sanguinalis, 504 h, dosage 80 g/ha) was 100%. For the same compound, the pest or weed control at 5 g/ha (ABUTH [10]; Abutilon theophrasti, 504 h, dosage 5 g/ha) was 80%, the pest or weed control at 20 g/ha (ABUTH [10]; Abutilon theophrasti, 504 h, dosage 20 g/ha) was 90% and the pest or weed control at 20 g/ha (ALOMY [11]; Alopecurus myosuroides, 504 h) was 90%. For the same compound, the pest or weed control at 20 g/ha (AMARE [12]; Amaranthus retroflexus, 504 h) was 90%, the pest or weed control at 5 g/ha (ECHCG [13]; Echinochloa crus-galli, 504 h, dosage 5 g/ha) was 90% and the pest or weed control at 20 g/ha (ECHCG [13]; Echinochloa crus-galli, 504 h, dosage 20 g/ha) was 90%. For the same compound, the pest or weed control at 20 g/ha (MATIN [14]; Tripleurospermum inodorum, 504 h) was 80%, the pest or weed control at 5 g/ha (PHBPU [15]; Ipomoea purpurea, 504 h, dosage 5 g/ha) was 90% and the pest or weed control at 20 g/ha (PHBPU [15]; Ipomoea purpurea, 504 h, dosage 20 g/ha) was 90%. It also gave a pest or weed control at 20 g/ha (SETVI [16]; Setaria viridis, 504 h) of 80%, a pest or weed control at 20 g/ha (VERPE [17]; Veronica persica, 504 h) of 80% and a pest or weed control at 5 g/ha (DIGSA [18]; Digitaria sanguinalis, 504 h, 5 g/ha) of 90%. For the same compound, the pest or weed control at 20 g/ha (DIGSA [18]; Digitaria sanguinalis, 504 h, 20 g/ha) was 90%.
